Laboratory results taken from patent publication US6514981B1, “Methods of modulating tyrosine protein kinase function with indolinone compounds” (Sugen, Inc., priority 1998, dated 2003).

Key:
C6 cells = assay: Growth of C6 cells (SRB); format: cell-based; conditions: Rattus norvegicus, 2%
Excerpt: The assay is the same as the assay set forth in EXAMPLE 10, except that C6 cells (ATCC 107) are used instead of A431 cells.
Compound of formula VI inhibited the growth rate of C6 cells as illustrated in Table 11.

3T3EGFR = assay: BrdU incorporation assay, 3T3EGFR, PDGF; format: cell-based
EGFR = EGFR (Homo sapiens, UniProt P00533); assay: EGF receptor phosphorylation assay in cells (ELISA); format: cell-based; design: expressed in transfected cells; host or cells: NIH 3T3/C7 cell line; conditions: NIH 3T3/C7 cells, EGF stimulation
Protocol: EGF Receptor kinase activity in cells genetically engineered to express human EGF-R was measured as described below: 1. Coat ELISA plates (Coming, 96 well, Cat. #25805-96) wit 05-101 antibody at 0.5 μg per well in PBS, 150 μL final volume/well, and store overnight at 4° C. Coated plates are good for up to 10 days when stored at 4° C. 1. NIH 3T3/C7 cell line (Honegger, et al., Cell 51:199-209, 1987) can be use for this assay. 3. Resuspend cells in seeding medium (DMEM, 0.5% bovine serum), and count the cells using trypan blue. Viability above 90% is acceptable. Seed cells in DMEM medium (0.5% bovine serum) at a density of 10,000 cells per well, 100 μL per well, in a 96 well microtiter plate. Incubate seeded cells in 5% CO2 at 37° C. for about 40 hours. 1. Check seeded cells for contamination using an inverted microscope. Dilute drug stock (10 mg/mL in DMSO) 1:10 in DMEM medium, then transfer 5 μL to a test well for a final drug dilution of 1:200 and a final DMSO concentration of […]. […] The maximal phosphotyrosine signal is determined by subtracting the value of the negative controls from the positive controls. The percent inhibition of phosphotyrosine content for extract-containing wells is then calculated, after subtraction of the negative controls. The IC50 values measured in the EGF receptor phosphorylation assay for the compound of formula VI are depicted in Table 3: […]

human FLK-1 = human FLK-1 (Homo sapiens, UniProt P35968); assay: FLK-1 autophosphorylation assay in vitro (ELISA); format: biochemical; design: host or cells: FLK-1/NIH cells (NIH fibroblast line); lysate captured on L4 or E38 anti-FLK-1 antibody; conditions: FLK-1 autophosphorylation in vitro, immobilized FLK-1 from FLK-1/NIH cell lysate
Excerpt: The following protocol describes the ELISA procedures used to determine the FLK-1 autophosphorylation activity in vitro. The procedure also describes the protocol for the initial screening of indolinone compounds. 2. FLK-1/NIH cells: NIH fibroblast line overexpressing human FLK-1 clone 3 (MPI, Martinsried, Germany). 6. L4 or […]: monoclonal antibody specific for FLK-1; purified by protein-A agarose affinity chromatography (SUGEN, Inc., Redwood City, Calif.). 2. Remove the medium and wash the cells twice with PBS. Lyse with HNTG lysis buffer. Collect all lysates and mix them on a vortex for 20-30 seconds. 1. Coat Corning 96-well ELISA plates with 2 ug/well of purified L4 (or […]) in 100 μL of PBS overnight at 4° C. 5. Dilute lysate in PBS to give final concentration of 50 ug/100 μL. Add 100 μL of diluted lysate per well. Incubate with shaking at 4° C. overnight. 7. Add 80 μL of kinase buffer to the wells (negative control wells get 90 μL). 8. Dilue compounds (normally 10 fold) into wells of a polypropylene plate containing 20% DMSO in TBS. 9. Add 10 μL of the prediluted compounds to the ELISA wells containing immobilized FLK-1 and shake. Control wells receive no compound. […] When the color in the positive control wells reaches an absorbance of about 0.35-0.4, read plates on Dynatech MR7000 ELISA reader. The IC50 values measured in the above assay for the compound of formula VI are depicted in Table 1: […]

Chain of EGFR (P00533 25-1210): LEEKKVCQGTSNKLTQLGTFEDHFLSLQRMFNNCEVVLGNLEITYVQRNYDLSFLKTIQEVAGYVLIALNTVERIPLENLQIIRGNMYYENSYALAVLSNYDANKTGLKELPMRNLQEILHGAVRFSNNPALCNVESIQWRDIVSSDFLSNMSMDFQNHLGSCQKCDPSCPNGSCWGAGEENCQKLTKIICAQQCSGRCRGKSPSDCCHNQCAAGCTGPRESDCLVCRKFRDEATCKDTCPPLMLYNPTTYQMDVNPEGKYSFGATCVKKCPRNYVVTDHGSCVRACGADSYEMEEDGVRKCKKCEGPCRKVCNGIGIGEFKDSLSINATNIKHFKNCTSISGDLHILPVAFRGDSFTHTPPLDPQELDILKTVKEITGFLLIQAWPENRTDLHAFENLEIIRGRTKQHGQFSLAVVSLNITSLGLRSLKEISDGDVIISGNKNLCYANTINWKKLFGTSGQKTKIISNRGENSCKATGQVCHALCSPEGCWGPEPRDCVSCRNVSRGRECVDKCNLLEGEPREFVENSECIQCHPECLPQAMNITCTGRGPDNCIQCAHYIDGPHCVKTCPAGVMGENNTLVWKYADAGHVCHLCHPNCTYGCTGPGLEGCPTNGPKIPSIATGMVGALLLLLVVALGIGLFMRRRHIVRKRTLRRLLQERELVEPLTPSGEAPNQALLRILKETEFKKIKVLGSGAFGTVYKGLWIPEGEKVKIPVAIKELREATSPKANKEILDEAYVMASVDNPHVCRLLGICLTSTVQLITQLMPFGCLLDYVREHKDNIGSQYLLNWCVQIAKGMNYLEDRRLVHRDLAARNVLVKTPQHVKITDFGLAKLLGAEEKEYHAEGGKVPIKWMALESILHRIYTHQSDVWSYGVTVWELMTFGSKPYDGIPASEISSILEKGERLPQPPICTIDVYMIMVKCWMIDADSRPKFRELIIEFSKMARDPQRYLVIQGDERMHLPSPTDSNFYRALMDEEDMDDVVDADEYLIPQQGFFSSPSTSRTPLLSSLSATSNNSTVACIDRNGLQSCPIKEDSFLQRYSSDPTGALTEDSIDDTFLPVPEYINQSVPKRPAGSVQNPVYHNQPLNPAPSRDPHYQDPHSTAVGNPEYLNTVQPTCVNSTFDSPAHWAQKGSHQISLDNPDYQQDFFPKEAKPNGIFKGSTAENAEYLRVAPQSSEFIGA
Chain of human FLK-1 (P35968 20-1356): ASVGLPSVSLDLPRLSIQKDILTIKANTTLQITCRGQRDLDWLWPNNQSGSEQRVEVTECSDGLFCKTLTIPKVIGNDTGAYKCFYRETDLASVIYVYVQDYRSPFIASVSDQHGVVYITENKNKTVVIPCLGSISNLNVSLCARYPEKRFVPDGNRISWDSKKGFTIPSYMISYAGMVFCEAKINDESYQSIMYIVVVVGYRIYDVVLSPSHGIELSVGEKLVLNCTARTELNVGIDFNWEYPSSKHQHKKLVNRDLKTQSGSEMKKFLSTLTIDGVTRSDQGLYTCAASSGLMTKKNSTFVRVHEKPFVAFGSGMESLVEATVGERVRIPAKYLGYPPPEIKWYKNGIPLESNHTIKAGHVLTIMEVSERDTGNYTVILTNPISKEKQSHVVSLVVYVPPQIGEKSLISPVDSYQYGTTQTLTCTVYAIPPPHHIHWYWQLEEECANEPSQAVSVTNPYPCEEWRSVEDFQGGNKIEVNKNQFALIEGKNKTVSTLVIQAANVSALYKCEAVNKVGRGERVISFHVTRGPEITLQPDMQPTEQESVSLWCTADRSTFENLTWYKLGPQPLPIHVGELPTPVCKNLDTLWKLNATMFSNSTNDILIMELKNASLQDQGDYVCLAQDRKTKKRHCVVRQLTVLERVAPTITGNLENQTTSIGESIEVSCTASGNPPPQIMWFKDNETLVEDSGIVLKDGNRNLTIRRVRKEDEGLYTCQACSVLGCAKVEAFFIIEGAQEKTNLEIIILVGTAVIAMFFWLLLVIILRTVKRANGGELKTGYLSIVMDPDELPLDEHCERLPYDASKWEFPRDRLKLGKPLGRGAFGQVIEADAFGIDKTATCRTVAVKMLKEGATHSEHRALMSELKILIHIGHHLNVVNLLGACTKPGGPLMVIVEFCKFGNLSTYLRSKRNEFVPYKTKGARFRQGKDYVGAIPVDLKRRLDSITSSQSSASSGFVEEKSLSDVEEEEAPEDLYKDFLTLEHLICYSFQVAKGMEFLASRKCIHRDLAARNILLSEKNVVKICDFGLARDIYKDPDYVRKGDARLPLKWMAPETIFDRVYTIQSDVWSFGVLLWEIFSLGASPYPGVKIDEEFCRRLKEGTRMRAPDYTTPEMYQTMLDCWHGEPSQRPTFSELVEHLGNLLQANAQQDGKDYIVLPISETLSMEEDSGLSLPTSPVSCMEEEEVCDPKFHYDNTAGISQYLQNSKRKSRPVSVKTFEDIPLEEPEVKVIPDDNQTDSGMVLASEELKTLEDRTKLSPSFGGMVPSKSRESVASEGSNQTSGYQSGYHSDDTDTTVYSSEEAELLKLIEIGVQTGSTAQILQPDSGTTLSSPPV

Compound: Cc1cc(/C=C2/C(=O)Nc3ccccc32)c(C)c2c1[nH]c1ccccc12 [VI]
- IC50 (C6 cells): 1.55 µM
- IC50 (3T3EGFR): 7 µM
- IC50 (EGFR): > 100 µM
- IC50 (human FLK-1): > 50 µM
